Target: T1, SMYD3 (Homo sapiens, UniProt Q9H7B4)
T1 construct: Expressed full-length human His-tagged SMYD3 protein was purified from cell paste; His6 (cleaved yes); SUMO (with TEV site) (cleaved yes); made in house; host or cells: E. coli BL21 codonplus RIL
T1 sequence (Q9H7B4 1-428): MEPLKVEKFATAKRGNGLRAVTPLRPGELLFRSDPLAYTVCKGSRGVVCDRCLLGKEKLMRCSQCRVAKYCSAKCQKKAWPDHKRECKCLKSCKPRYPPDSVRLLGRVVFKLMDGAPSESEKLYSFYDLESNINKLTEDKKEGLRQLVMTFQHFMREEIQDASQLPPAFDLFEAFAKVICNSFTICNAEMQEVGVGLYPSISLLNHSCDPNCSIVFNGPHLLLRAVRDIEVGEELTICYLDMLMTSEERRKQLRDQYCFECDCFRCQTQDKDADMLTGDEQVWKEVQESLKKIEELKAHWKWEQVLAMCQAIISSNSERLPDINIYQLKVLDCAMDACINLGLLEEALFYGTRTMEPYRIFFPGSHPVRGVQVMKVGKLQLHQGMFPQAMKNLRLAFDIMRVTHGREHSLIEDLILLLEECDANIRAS
Experiment: SMYD3 Biochemical Assay (SMYD3 enzyme assay on MEKK2 protein substrate, 3H-SAM, scintillation proximity assay)
Settings: read-out: SMYD3 Biochem IC50 (uM)*
Description: S-adenosylmethionine (SAM), S-adenosylhomocysteine (SAH), Tris, Tween20, dimethylsulfoxide (DMSO), bovine skin gelatin (BSG), and Tris(2-carboxyethyl)phosphine hydrochloride solution (TCEP) were purchased from Sigma-Aldrich at the highest level of purity possible. ^3H-SAM was purchase from American Radiolabeled Chemicals with a specific activity of 80 Ci/mmol.
This protein was expressed in High Five insect cells and purified to >85% purity. Protein identity was confirmed by MS/MS analysis after proteolytic digestion. The protein sequence used was:
Full-length human SMYD3 isoform 1 (BAB86333) was inserted into a modified pET21b plasmid containing a His6 tag and TEV and SUMO cleavage sites.
Transformed cells were grown and selected on LB agar with 100 μg/mL ampicillin and 17 μg/mL chloramphenicol at 37° C. overnight. A single clone was used to inoculate 200 mL of LB medium with 100 μg/mL ampicillin and 17 μg/mL chloramphenicol and incubated at 37° C. on an orbital shaker at 180 rpm. […] Once OD600 reached about 0.4, IPTG was added to a final concentration of 0.1 mM and the cells were grown overnight at 15° C. and 160 rpm. Cells were harvested by centrifugation at 8000 rpm, for 4 minutes at 4° C. and stored at −80° C. for purification. […]

SMILES: NCCC(=O)N(CCN)[C@H]1CC[C@H](NC(=O)c2cc(C3CC3)on2)CC1 [compound 35, N-((1r,4r)-4-(3-amino-N-(2-aminoethyl)pro-panamido)cyclo-hexyl)-5-cyclo-propylisoxazole-3-carboxamide]
- IC50: 0.883 µM

Reference: patent publication US20200123142A1, “Substituted Cyclohexylamine Compounds” (EPIZYME, INC., priority 2018, published 2020)
